The text below walks through data of US10864212B2, “Compositions and methods for treating retinal degradation” (University of Kentucky Research Foundation, priority 2013, dated 2020).

Entries after “also recorded” stand apart in the source; their conditions may differ.

Holding throughout (format): cell-based
The target in one assay is T1, rat P2X7 receptor (Rattus norvegicus, UniProt Q64663).
T1 construct: expressed in transfected cells
T1 sequence (Q64663 1-595): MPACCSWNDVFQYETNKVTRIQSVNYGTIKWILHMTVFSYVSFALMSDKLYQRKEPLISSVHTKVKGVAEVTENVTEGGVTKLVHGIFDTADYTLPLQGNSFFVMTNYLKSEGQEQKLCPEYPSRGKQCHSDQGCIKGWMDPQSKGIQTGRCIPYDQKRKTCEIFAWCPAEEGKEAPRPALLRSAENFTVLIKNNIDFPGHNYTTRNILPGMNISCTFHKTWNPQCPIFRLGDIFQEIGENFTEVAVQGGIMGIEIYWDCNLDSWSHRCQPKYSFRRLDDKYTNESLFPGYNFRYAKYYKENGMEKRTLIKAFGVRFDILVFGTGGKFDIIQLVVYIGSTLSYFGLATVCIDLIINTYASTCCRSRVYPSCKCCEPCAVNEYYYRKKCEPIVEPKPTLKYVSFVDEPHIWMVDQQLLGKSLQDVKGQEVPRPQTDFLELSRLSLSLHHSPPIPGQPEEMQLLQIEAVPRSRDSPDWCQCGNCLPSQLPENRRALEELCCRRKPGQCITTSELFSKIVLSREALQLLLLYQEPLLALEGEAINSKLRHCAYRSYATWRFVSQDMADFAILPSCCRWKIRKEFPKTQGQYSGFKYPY
Put plainly: Patch clamp analysis of P2X7 cation channel function, HEK293 stable cell line expressing rat P2X7 receptor.

A further assay relates to ATP release. Description: ATP release induced by Alu RNA from primary human RPE cells (ATP-dependent luciferase assay). The settings on record: cell culture supernatant, FIG. 16, 42. The source says: Cell culture supernatant was collected from mock or Alu RNA treated cells, with or without d4T, and ATP was detected using an ATP-dependent luciferase assay.
(FIG. 16) Primary human RPE cells treated with Alu RNA for the times indicated release ATP. […] ATP was detected using an ATP-dependent luciferase assay.

For assay [1], the system named is IL-1 beta. Put plainly: LPS/ATP-induced IL-1 beta activation in primary mouse bone marrow-derived macrophages (Western blot). The settings on record: FIG. 39. The source says:
To determine whether LPS/ATP-induced inflammasome activation can be inhibited without RT inhibition, the present inventors utilized thymidine kinase-deficient (Raji/TK^−) and -expressing (Raji/TK^+) cells (Balzarini et al., 1989). After addition of AZT, […], but not TK^− cells, the present inventors produced AZT-triphosphate (AZT-TP), the AZT metabolite required for RT inhibition (FIG. 40; FIG. 46, FIG. 47, FIG. 48, FIG. 49, FIG. 50).
FIGS. 38-41 illustrate that NRTIs block LPS/ATP-induced inflammasome activation. […] Representative images of n=3-4 experiments are provided in each of FIGS. 38-41.
On the technique in general: In western blotting, separated proteins are transferred to a membrane and probed.

The next assay concerns NLRP3 mRNA. Put plainly: NLRP3 priming (mRNA) induced by Alu RNA in primary human RPE cells. The settings on record: Alu RNA transfection, 16 hours, d4T 100 uM, FIG. 13. The method, then: Indeed, as provided in the bar graph of FIG. 13, Alu RNA transfection increases NLRP3 mRNA levels in primary human RPE cells at 16 hours, an event termed “priming” (Y-axis) compared to mock (transfection reagent alone).

A further assay has as its system IRAK4. Put plainly: Western blot of IRAK4 phosphorylation in primary human RPE cells transfected with Alu RNA. As to conditions: FIG. 34. An excerpt:
Alu RNA mediates RPE cell death via activation of Caspase 1 and the NLRP3 inflammasome (Tarallo et al., 2012).

The subject of assay [2] is IL-1 beta. Put plainly: LPS/nigericin-induced IL-1 beta maturation in mouse bone marrow-derived macrophages (Western blot). As to conditions: d4T 100, 250 uM, FIG. 10. The source says:
(§1) To produce FIG. 10, cell culture supernatants were collected after (i) no treatment, (ii) LPS treatment, or (iii) LPS/nigericin treatment of mouse bone marrow-derived macrophages and run on Western blotting probing with antibodies for IL-1 beta and Caspase-1.
(§2) Cell culture supernatants were collected after (i) no treatment, (ii) LPS treatment, or (iii) LPS/nigericin treatment of mouse bone marrow-derived macrophages, and run on Western blotting probing with antibodies for IL-1 beta and Caspase-1.

The next assay relates to Caspase-1. Description: LPS/nigericin-induced Caspase-1 activation in mouse bone marrow-derived macrophages (Western blot). As to conditions: d4T 100, 250 uM, FIG. 10.
Excerpt: as §1, §2

The target of another assay is T2, human P2X7 receptor (Homo sapiens, UniProt Q99572).
T2 construct: expressed in transfected cells
T2 sequence (Q99572 1-595): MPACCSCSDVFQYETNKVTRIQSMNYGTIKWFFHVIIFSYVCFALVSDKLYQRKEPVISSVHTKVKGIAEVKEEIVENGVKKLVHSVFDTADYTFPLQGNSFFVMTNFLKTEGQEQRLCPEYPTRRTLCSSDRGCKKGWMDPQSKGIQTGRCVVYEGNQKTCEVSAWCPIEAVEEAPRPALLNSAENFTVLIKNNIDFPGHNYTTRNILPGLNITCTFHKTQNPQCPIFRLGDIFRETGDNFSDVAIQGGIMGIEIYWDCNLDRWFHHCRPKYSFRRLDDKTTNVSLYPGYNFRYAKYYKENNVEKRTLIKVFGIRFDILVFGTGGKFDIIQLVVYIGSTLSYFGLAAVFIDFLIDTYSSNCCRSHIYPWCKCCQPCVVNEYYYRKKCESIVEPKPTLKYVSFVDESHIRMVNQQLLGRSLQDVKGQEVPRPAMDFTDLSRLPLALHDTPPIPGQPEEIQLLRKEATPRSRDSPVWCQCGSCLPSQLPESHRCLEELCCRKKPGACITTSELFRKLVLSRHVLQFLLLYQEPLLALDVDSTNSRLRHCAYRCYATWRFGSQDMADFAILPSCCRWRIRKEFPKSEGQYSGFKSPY
Description: Patch clamp analysis of P2X7 cation channel function, HEK293 stable cell line expressing human P2X7 receptor.

For assay [3], the system named is GFP-expressing lentivirus. Put plainly: Replication of a GFP-expressing lentivirus in HeLa cells. The settings on record: HeLa cells; FIG. 22. An excerpt: The present disclosure further provides the results of additional experiments in FIG. 21-FIG. 23.
The next assay deals with Alu RNA. Put plainly: Northern blot of Alu RNA levels in primary human RPE cells. The source says: FIG. 4 provides another example of the results of Northern blotting using an Alu-specific probe.
FIG. 45 is a Northern blot of biotin-UTP-labeled Alu RNA-transfected primary human RPE cells.
As presented in FIG. 3, primary human RPE cells treated with antisense oligonucleotides targeting DICER1 (Dcr as) (lane 3 (third lane from left)) show increased Alu RNA levels in the nuclear compartment compared to control antisense oligonucleotides (Ctr as) (lane 1 (leftmost)), monitored by Northern blotting using an Alu-specific probe.
For example, primary human RPE cells may be transfected with Alu RNA, with or without d4T. […] U6 (bottom row) is shown as loading control for nuclear fraction in FIG. 4.
And FIG. 45 presents a Northern blot of biotin-UTP-labeled Alu RNA-transfected primary human RPE cells.

Regarding `Cc1cn([C@H]2C=C[C@@H](CO)O2)c(=O)[nH]c1=O` [d4T, 2′3′ dideoxythymidine], the “P2X7 cation channel function (patch clamp)” value on rat P2X7 receptor and on human P2X7 receptor was “did not significantly modulate P2X7 cation channel function” each time. Moreover, the “ATP release induced by Alu RNA” value in the assay on ATP release is given as “does not block release of ATP; also recorded: did not affect ATP release; also recorded: does not block Alu-induced ATP release”. Also, in the assay on IL-1 beta [1], the “IL-1 beta activation / secretion of mature IL-1 beta, LPS/ATP” value is reported as “blocks secretion of mature IL-1 beta; also recorded: blocked IL-1 beta”. Moreover, the “NLRP3 mRNA levels (priming), normalized to 18S RNA” value in the assay with NLRP3 mRNA is “blunted”. For the same compound, in the assay on IRAK4, the IRAK4 phosphorylation result is on record as “blocks phosphorylation of IRAK4”. Moreover, the “IL-1 beta maturation (18 and 22 kDa forms) induced by nigericin” value in the assay with IL-1 beta [2] was “inhibits”. Further, the “Caspase-1 activation (active p20 band) induced by nigericin” value in the assay on Caspase-1 is “inhibits”. Moreover, the “Replication of a GFP-expressing lentivirus” value in [3] is recorded as “blocks replication of a GFP-expressing lentivirus”. In addition, the “Alu RNA levels (normalized to u6 RNA)” value with Alu RNA (biotin-UTP-labeled Alu RNA-transfected primary human RPE cells, FIG. 45) is on record as “without reducing Alu RNA levels; also recorded: did not reduce Alu RNA levels”. In addition, the “Alu RNA levels in nuclear fraction” value in the assay on Alu RNA (human RPE cells transfected with Alu RNA, 1, 4, or 24 hours after transfection, FIG. 4) is recorded as “does not change Alu RNA levels”. For the same compound, the “Alu RNA levels in nuclear compartment” value with Alu RNA (primary human RPE cells treated with antisense oligonucleotides targeting DICER1, FIG. 3) was “does not reduce Alu RNA levels”.
